Data as given in patent US20120309792A1, “TETRAZOLE DERIVATIVES AS NICOTINIC ACETYLCHOLINE RECEPTOR MODULATORS” (NEUROSEARCH A/S, priority 2009, published 2012).

target: T1, human nicotinic acetylcholine receptor subtype a4b2 (Homo sapiens, UniProt P17787+P43681); assay: Characterization of hα4β2 positive allosteric modulators using FLIPR; format: cell-based; settings: shift of nicotine pEC50 in presence of 10 μM test compound; HEK-293 cells stably expressing hα4β2; fluo-4 calcium FLIPR
T1 construct: expressed in transfected cells
Procedure: Characterization of hα4β2 Positive Allosteric Modulators Using FLIPR
The modulator activity is determined as a fluorescence-based assay using a Fluorometric Imaging Plate Reader (FLIPR) as described below in more detail.
HEK-hα4β2 cells were seeded on poly-D-lysin-coated 384 well microtiter plates and allowed to proliferate for 24 h. Dye loading was performed by incubating cells with 2 μM fluo-4/AM for 1.5 h at room temperature. Dye not taken up by the cells was removed by aspiration, followed by three washing cycles with NMDG Ringer buffer (containing in mM: 140 NMDG, 5 KCl, 1 MgCl2, 10 CaCl2, 10 HEPES, pH 7.4). The microtiter plates were then placed in the FLIPR and subjected to test solutions.
Full concentration-response curves of nicotine were generated in the absence and presence test compound. Background-subtracted nicotine-mediated calcium responses were determined and normalized to maximal nicotine control responses. Nicotine potencies (expressed as pEC50) were calculated and the difference between the functional potency in the absence and presence of test compound was determined (Δ pEC50).
The modulatory activity of compounds of the invention determined as ΔpEC50 values in the presence of 10 μM of test compound are presented in Table 1 below.

T1 sequence (P43681 29-627 limits assumed): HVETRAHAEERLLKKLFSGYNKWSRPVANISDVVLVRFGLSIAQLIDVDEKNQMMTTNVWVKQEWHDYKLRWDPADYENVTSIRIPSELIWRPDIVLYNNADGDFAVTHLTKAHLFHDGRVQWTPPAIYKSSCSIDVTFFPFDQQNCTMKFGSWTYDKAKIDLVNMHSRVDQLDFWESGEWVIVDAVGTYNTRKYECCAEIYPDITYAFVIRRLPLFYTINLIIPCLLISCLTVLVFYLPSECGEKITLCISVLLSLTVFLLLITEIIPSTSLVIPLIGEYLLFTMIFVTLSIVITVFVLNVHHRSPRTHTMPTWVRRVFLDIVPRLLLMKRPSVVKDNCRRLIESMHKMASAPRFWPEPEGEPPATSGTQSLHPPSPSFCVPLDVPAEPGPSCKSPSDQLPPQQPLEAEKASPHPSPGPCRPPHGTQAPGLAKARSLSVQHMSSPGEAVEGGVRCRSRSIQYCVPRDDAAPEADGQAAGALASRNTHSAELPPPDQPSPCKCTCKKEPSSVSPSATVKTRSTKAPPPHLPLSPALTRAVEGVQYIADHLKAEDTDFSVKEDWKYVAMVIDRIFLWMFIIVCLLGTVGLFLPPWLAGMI
T1 sequence (P17787 26-502): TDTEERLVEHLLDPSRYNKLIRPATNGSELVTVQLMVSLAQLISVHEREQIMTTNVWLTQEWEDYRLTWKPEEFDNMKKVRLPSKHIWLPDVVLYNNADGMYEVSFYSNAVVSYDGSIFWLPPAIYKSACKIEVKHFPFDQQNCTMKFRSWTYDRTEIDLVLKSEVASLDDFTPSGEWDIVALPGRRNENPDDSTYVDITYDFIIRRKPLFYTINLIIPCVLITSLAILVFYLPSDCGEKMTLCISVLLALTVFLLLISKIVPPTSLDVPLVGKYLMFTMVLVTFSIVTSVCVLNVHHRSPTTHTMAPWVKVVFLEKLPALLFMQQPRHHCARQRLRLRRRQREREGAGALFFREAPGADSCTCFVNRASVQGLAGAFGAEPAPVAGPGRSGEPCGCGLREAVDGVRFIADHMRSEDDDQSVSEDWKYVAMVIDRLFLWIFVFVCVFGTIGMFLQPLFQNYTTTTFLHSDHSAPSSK

| Structure (SMILES) | ΔpEC50 |
| --- | --- |
| Fc1cncc(-n2nnc(-c3cccnc3)n2)c1 [Compound A1, 3-Fluoro-5-[5-(3-pyridyl)tetrazol-2-yl]pyridine] | 1.5 |
| O=C(O)/C=C/C(=O)O.c1cncc(-c2nnn(-c3cccnc3)n2)c1 [Compound B1, 3-[2-(3-Pyridyl)tetrazol-5-yl]pyridine fumarate] | 1.8 |
| Cc1ccc(-c2nnn(-c3cccnc3)n2)cn1 [Compound B4, 2-Methyl-5-[2-(3-pyridyl)tetrazol-5-yl]pyridine] | 1.0 |
| Cc1ccc(-n2nnc(-c3cccnc3)n2)cn1 [Compound B5, 2-Methyl-5-[5-(3-pyridyl)tetrazol-2-yl]pyridine] | 1.7 |
| Fc1ccc(-n2nnc(-c3cccnc3)n2)cn1 [Compound B9, 2-Fluoro-5-[5-(3-pyridyl)tetrazol-2-yl]pyridine] | 1.9 |
| Fc1cncc(-c2nnn(-c3ccc(F)nc3)n2)c1 [Compound B11, 3-Fluoro-5-[2-(6-fluoro-3-pyridyl)tetrazol-5-yl]pyridine] | 1.4 |
| Fc1cncc(-n2nnc(-c3ccc(F)nc3)n2)c1 [Compound B12, 2-Fluoro-5-[2-(5-fluoro-3-pyridyl)tetrazol-5-yl]pyridine] | 1.6 |
| Clc1ccc(-c2nnn(-c3cccnc3)n2)cn1 [Compound B13, 2-Chloro-5-[2-(3-pyridyl)tetrazol-5-yl]pyridine] | 1.8 |
| Clc1cncc(-c2nnn(-c3cccnc3)n2)c1 [Compound B15, 3-Chloro-5-[2-(3-pyridyl)tetrazol-5-yl]pyridine] | 1.7 |
| Clc1ccc(-n2nnc(-c3cccnc3)n2)cn1 [Compound B17, 2-chloro-5-[5-(3-pyridyl)tetrazol-2-yl]pyridine] | 2.0 |
| Fc1ccc(-n2nnc(-c3cncc(Cl)c3)n2)cn1 [Compound B18, 3-chloro-5-[2-(6-fluoro-3-pyridyl)tetrazol-5-yl]pyridine] | 1.5 |
| Fc1cncc(-n2nnc(-c3ccc(Cl)nc3)n2)c1 [Compound B20, 2-chloro-5-[2-(5-fluoro-3-pyridyl)tetrazol-5-yl]pyridine] | 0.74 |
| Clc1cncc(-n2nnc(-c3cccnc3)n2)c1 [Compound B21, 3-chloro-5-[5-(3-pyridyl)tetrazol-2-yl]pyridine] | 0.8 |
| Fc1ccc(-n2nnc(-c3cccnc3F)n2)cn1 [Compound B24, 2-fluoro-3-[2-(6-fluoro-3-pyridyl)tetrazol-5-yl]pyridine] | 1.6 |
| Fc1ccc(-n2nnc(-c3cncc(I)c3)n2)cn1 [Compound B25, 2-fluoro-5-[5-(5-iodo-3-pyridyl)tetrazol-2-yl]pyridine] | 0.58 |

Other lines, results leading:

| ΔpEC50 | Structure (SMILES) |
| --- | --- |
| 0.55 | Brc1cncc(-n2nnc(-c3cccnc3)n2)c1 [Compound B2, 3-Bromo-5-[5-(3-pyridyl)tetrazol-2-yl]pyridine] |
| −0.16 | COc1cncc(-n2nnc(-c3cccnc3)n2)c1 [Compound B3, 3-Methoxy-5-[5-(3-pyridyl)tetrazol-2-yl]pyridine] |
| 0.16 | Cc1cncc(-n2nnc(-c3cccnc3)n2)c1 [Compound B6, 3-Methyl-5-[5-(3-pyridyl)tetrazol-2-yl]pyridine] |
| 0.11 | Cc1ncccc1-n1nnc(-c2cccnc2)n1 [Compound B7, 2-Methyl-3-[5-(3-pyridyl)tetrazol-2-yl]pyridine] |
| −0.29 | Cc1ncccc1-c1nnn(-c2cccnc2)n1 [Compound B8, 2-Methyl-3-[2-(3-pyridyl)tetrazol-5-yl]pyridine] |
| 1.3 | Fc1cncc(-c2nnn(-c3cncc(F)c3)n2)c1 [Compound B10, 3-Fluoro-5-[2-(5-fluoro-3-pyridyl)tetrazol-5-yl]pyridine] |
| 1.5 | Fc1ccc(-c2nnn(-c3cccnc3)n2)cn1 [Compound B14, 2-Fluoro-5-[2-(3-pyridyl)tetrazol-5-yl]pyridine] |
| 1.7 | Fc1cncc(-c2nnn(-c3cccnc3)n2)c1 [Compound B16, 3-Fluoro-5-[2-(3-pyridyl)tetrazol-5-yl]pyridine] |
| 1.6 | Fc1cncc(-c2nnn(-c3ccc(Cl)nc3)n2)c1 [Compound B19, 2-chloro-5-[5-(5-fluoro-3-pyridyl)tetrazol-2-yl]pyridine] |
| 1.1 | Fc1cncc(-n2nnc(-c3cncc(Cl)c3)n2)c1 [Compound B22, 3-chloro-5-[2-(5-fluoro-3-pyridyl)tetrazol-5-yl]pyridine] |
| 1.5 | Brc1cncc(-c2nnn(-c3cccnc3)n2)c1 [Compound B23, 3-bromo-5-[2-(3-pyridyl)tetrazol-5-yl]pyridine] |
